Data taken from US8968702B2, “Inhibition of HIF-1 activation for anti-tumor and anti-inflammatory responses” (Duke University, priority 2006, dated 2015).
Where two headings read alike, the source gives them in different places. Where a SMILES comes first, the peptide text is derived from it. The star is where a group is joined. Cbz = O=C(OCc1ccccc1)*

Assays:
HIF-1α [1] = format: cell-based, murine
B16F10 (murine melanoma) = assay: Tumor growth delay with radiotherapy, B16F10 tumors; format: in vivo; conditions: syngeneic C57BL/6 mice, 3 fractions of 6 Gy every other day, L-NAME in drinking water
Text: (§1) Animal experiments. […] Drinking water was renewed daily until animal sacrifice.
(§2) Statistics. Student's t test, one-way and two-way ANOVA were used where indicated. In growth delay experiments, the numbers of days for tumors to reach 5× their initial volume were used for comparing different treatment groups.

tumor vasculature = assay: CD31 vessel staining / vascular density in tumors; format: in vivo, mice; conditions: 4T1 and B16F10 tumors excised on day 10
Protocol: Vessel staining was performed on tumor cryoslices by using the VECTASTAIN® ABC and the NOVARED™ kits from Vector Laboratories (Burlingame, Calif., United States of America), according to the manufacturer's protocol. The primary anti-CD31 antibody (Santa Cruz Biotechnology, Santa Cruz, Calif.) was labeled with a secondary biotinylated anti-rabbit antibody (Jackson ImmunoResearch Labs, Inc.). Slices were counterstained using Harris' hematoxilin. Vascular density was determined by counting CD31-positive structures in 5 random fields per tumor.

[2] = tested on: constitutively expressed luciferase; assay: CMV-luc control reporter in irradiated 4T1 tumors in nude mice; format: in vivo; conditions: 4T1-luc tumors, 6 Gy, with or without L-NAME
Text: Plasmids and cloning procedures. The HIF-1α bioluminescence reporter (ODD-luc) construct was created by fusing PCR product of ODD domain of HIF-1α (GENBANK® Accession No. U59496) to the 5′ end of firefly luciferase reporter gene. Along with this construct, a luciferase expression vector in which luciferase gene was driven by the CMV promoter was used as a control. […] ODD fragments with or without the mutation were cloned into pCMV-3Tag-4B Epitope Tagging Mammalian Expression vector (Stratagene, La Jolla, Calif., United States of America). The full length mouse VHL gene (GENBANK® Accession No. S76748) was cloned form mouse tissue and tagged with HA tag by PCR. All constructs were sequence-verified.
Imaging luciferase activity.
as §1

[3] = tested on: 4T1 (murine mammary adenocarcinoma); assay: Tumor growth delay with radiotherapy, 4T1 tumors; format: in vivo; conditions: syngeneic mice, 3 fractions of 6 Gy every other day, L-NAME in drinking water
Text: as §1, §2

HIF-1α [4] = assay: Radiation-induced ODD-luc in 4T1 tumors in macrophage-depleted nude mice; format: in vivo; conditions: 4T1-ODD-luc tumors, carrageenan 2 mg i.p. repeated, 6 Gy
Protocol: Imaging luciferase activity. Luciferase expression/activity was detected and quantified as relative light units (RLUs) by using the Xenogen IVIS™ imaging system and associated LIVING IMAGE® software (Xenogen, Alameda, Calif., United States of America). […] For in vivo experiments, treated tumor-bearing mice received an i.p. injection of luciferin (150 mg/kg) during isofluorane anesthesia. Repeated images of luciferase expression/activity were acquired following manufacturer's specified procedures.
Animal experiments. Female NIH Swiss nude mice, C57BL/6 mice were purchased from the National Cancer Institute (NCI; Fredrick, Md., United States of America). Mice with a genetic disruption of the inducible nitric acid synthase gene (C57BL/6 iNOS^−/−) were obtained from the Jackson Laboratory (Bar Harbor, Me., United States of America). Female BALB/c mice were obtained from Charles River Laboratories (Raleigh, N.C., United States of America). Animals were maintained and cared for in accordance with the Duke University Institutional Animal Care and Use Committee guidelines. For tumor implantation, 4T1 tumors were grown in nude mice or in syngeneic BALB/c mice, and B16F10 melanoma in syngeneic C57BL/6 or iNOS^−/− mice. […]

Q: How did the “luminescence from ODD-luc reporter gene expression” value (HIF-1α [1]) turn out when `[Cl-].[Cl-].[Co+2]` [CoCl2] was run?
A: rose significantly

Q: Which “suppression of GSNO-induced HIF-1α activation (ODD-luc)” value (HIF-1α [1]) does the source give for `CC1(C)N([O])C(c2ccc(C(=O)[O-])cc2)=[N+]([O-])C1(C)C.[K+]` [carboxy-PTIO, potassium 2-(4-carboxyphenyl)-4,4,5,5-tetramethylimidazoline-1-oxyl-3-oxide] here?
A: effectively suppressed HIF-1α activation by GSNO

Q: Which “tumor growth delay, L-NAME with radiotherapy” value (B16F10 (murine melanoma)) does the source give for `COC(=O)[C@@H](N)CCCNC(=N)N[N+](=O)[O-]` [L-NAME, Nω-nitro-L-arginine methyl ester] here?
A: significantly enhanced the therapeutic efficacy of radiotherapy

Q: What about the “tumor vasculature (CD31+ vascular density), L-NAME with radiotherapy” value (tumor vasculature) of the same compound?
A: significantly reduced tumor vasculature

Q: What about the “activity of constitutively expressed luciferase (CMV-luc control)” value [2] of the same compound?
A: did not influence the activity of constitutively expressed luciferase activity

Q: And the “tumor growth delay, L-NAME with radiotherapy” value [3]?
A: significantly enhanced the therapeutic efficacy of radiotherapy

Q: `CC(C)C[C@@H](C=O)NC(=O)[C@H](CC(C)C)NC(=O)[C@H](CC(C)C)NC(=O)OCc1ccccc1` [MG132] (Cbz-Leu-Leu-Leu-aldehyde) was tested. Which “luminescence from ODD-luc reporter gene expression” value (HIF-1α [1]; CoCl2 240 μM for 12 hrs, MG132 10 μM for 12 hrs, versus background) did it give?
A: rose significantly

Q: carrageenan was tested. Which “radiation-induced ODD-luc activation after macrophage depletion” value (HIF-1α [4]) did it give?
A: significant reduction in radiation-induced ODD-luc activation
